Assay results from US20240158438A1, “POLYPEPTIDE COMPOUND AND APPLICATION THEREOF” (CHENGDU SINTANOVO BIOTECHNOLOGY CO., LTD., priority 2021, published 2024).
Starred links: 1 amine or outer side, 2 acyl side, 3 side chain; linkers in the order of their positions; H or OH if unused. Non-standard residues stand in square brackets, D forms with d. Residues, ends and D or L forms follow the SMILES beside them. *: point of attachment. X6 = O=C(C1[C@H]2CC[C@H](C2)N1[*:1])[*:2]; X5 = NC12CC3CC(C1)CC(CC(=O)*)(C3)C2; dBta = N[C@H](Cc1csc2ccccc12)C(=O)O; X7 = O=C([C@@]12CNC[C@@H]1C2)*; Ac4c(3-oxa) = NC1(C(=O)O)COC1; dNle = CCCC[C@@H](N)C(=O)O; dAbu = CC[C@@H](N)C(=O)O; Api = NC1(C(=O)O)CCNCC1; X4 = O=C([C@H]1CNCCO1)*; dAze = O=C(O)[C@H]1CCN1

These molecules were tested against GHSR-1a (Homo sapiens (Human), UniProt Q92847) (assay: Agonistic activity for GHSR-1a, FLIPR calcium assay). Conditions: agonist activity assay, Flp In-CHO-GHSR Stable Pool cells, FLIPR calcium 6 kit; read-out: The activity (IC50) of polypeptide compounds for GHSR-1a.
Chain of GHSR-1a (Q92847 whole entry): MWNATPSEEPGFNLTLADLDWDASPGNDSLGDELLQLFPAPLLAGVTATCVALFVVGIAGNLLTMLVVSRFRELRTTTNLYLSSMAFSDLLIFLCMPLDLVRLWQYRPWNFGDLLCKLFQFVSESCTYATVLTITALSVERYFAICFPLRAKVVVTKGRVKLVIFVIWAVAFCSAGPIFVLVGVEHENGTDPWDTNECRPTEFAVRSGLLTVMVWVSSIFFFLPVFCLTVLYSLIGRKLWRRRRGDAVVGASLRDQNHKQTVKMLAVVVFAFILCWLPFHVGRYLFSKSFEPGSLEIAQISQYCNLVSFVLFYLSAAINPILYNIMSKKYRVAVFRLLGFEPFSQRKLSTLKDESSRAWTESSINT
Type: cell-based
Description: The use of recombinant expression of GHSR provides several advantages; for example, the receptor can be expressed in a determined cell system, so that it is easier to distinguish between the reactions of the compounds with GHSR and the reactions with other receptors. For example, cell lines such as HEK293, COS7 and CHO that […] can be used to express GHSR, and the same cell lines without expression vectors are used as controls.
The activity of GHSR-1a can be measured using different techniques, for example, by detecting the change in the intracellular conformation of GHSR, the change in G-protein coupling activity, and/or the change in intracellular messengers. Techniques such as measuring intracellular Ca^2+ are preferably used to measure the activity of GHSR-1a. Examples of techniques known in the art that can be used to measure Ca^2+ include the use of FLIPR® calcium ion assay kits, among others. The FLIPR® calcium ion assay kits use a calcium ion sensitive indicator and a masking dye to ensure that a researcher carries out high-sensitivity fluorescent screening for G protein-coupled receptors, ion channels and other calcium ion sensitive targets. This experiment used FLIPR calcium 6 assay kits and FLIPR calcium 6-QF assay kits.
• a) Cell line: Flp In-CHO-GHSR Stable Pool; • b) Complete medium: F12K+10% fetal bovine serum+1×penicillin-streptomycin (PS)+600 μg/mL hygromycin B; • c) Cell seeding medium: F12K+10% fetal bovine serum. • d) Assay buffer: 1× HBSS+20 mM HEPES. • e) […] component A: Assay buffer and component A were left at room temperature (RT), 10 mL of buffer was added to component A, and the mixture was vortexed for 1-2 min and stored at −20° C.
• a) Compound stock solutions: the powders from in-house synthesis were made into 10 mM stock solutions in DMSO according to the standard protocol. • b) Compound storage: all compounds in DMSO were stored in room temperature desiccators for short-term storage (at most 4 months). The remaining compounds were left at −20 ° C. for long-term storage.
• a) Flp In-CHO-GHSR Stable Pool cells were cultured in complete medium. • b) The cells were placed in […] cell seeding medium in a 384-well cell culture plate (Corning, 3764) at 7k cells/well and cultured overnight at 37° C. with 5% CO2. • c) 20× component A was thawed at room temperature, diluted with assay buffer to 2×, and left at RT. • d) The Petri dish was taken out of the incubator and equilibrated at room temperature for 10 min. The medium was changed to […]. After the final wash, 20 μL of buffer was kept in each well, 20 μL of 2× component A was then added to each well, and the plate was incubated at 37° C. for 3-5 s. • e) 10 μL of 5× compound was added to the 384-well cell culture plate, and data collection was immediately performed using FLIPR Tetra.
• 1) Z′ factor=1−3×(SDMax+SDMin)/(MeanMax−MeanMin); • 2) CVMax=(SDMax/MeanMax)×100%; • 3) CVMin=(SDMin/MeanMin)×100%; • 4) S/B=Singal/Background; • 5) Calculation formula for IC50: • Y=Bottom+(Top−Bottom)/(1+10^((LogIC50−X)×HillSlope)) • X: log value of compound concentration; Y: Activation % or Inhibition %

IC50 [nM]	Compound
78.4	NC(=O)[C@H](Cc1ccccc1)NC(=O)[C@@H](Cc1c[nH]c2ccccc12)NC(=O)[C@@H](Cc1csc2ccccc12)NC(=O)CC12CC3CC(CC(N)(C3)C1)C2 [Compound 78]
33.1	NC(=O)[C@H](Cc1ccccc1)NC(=O)[C@@H](Cc1c[nH]c2ccccc12)NC(=O)[C@@H](Cc1csc2ccccc12)NC(=O)C1N[C@@H]2CC[C@H]1C2 (stereo partly shown) [Compound 79]
7.2	CCCC[C@@H](NC(=O)[C@@H](CCCCN)NC(=O)[C@H](Cc1ccccc1)NC(=O)[C@@H](Cc1c[nH]c2ccccc12)NC(=O)[C@@H](Cc1csc2ccccc12)NC(=O)[C@H](N)CC)C(N)=O [Compound 81] (H-[dAbu][dBta][dW]F[dK][dNle]-NH2)
9	CCCC[C@@H](NC(=O)[C@@H](CCCCN)NC(=O)[C@H](Cc1ccccc1)NC(=O)[C@@H](Cc1c[nH]c2ccccc12)NC(=O)[C@@H](Cc1csc2ccccc12)NC(=O)[C@H](N)CC)C(=O)N[C@H](C)C(N)=O [Compound 82] (H-[dAbu][dBta][dW]F[dK][dNle][dA]-NH2)
12.2	CCCC[C@@H](NC(=O)C1(NC(=O)[C@H](Cc2ccccc2)NC(=O)[C@@H](Cc2c[nH]c3ccccc23)NC(=O)[C@@H](Cc2csc3ccccc23)NC(=O)[C@H](N)CC)CCNCC1)C(N)=O [Compound 83] (H-[dAbu][dBta][dW]F[Api][dNle]-NH2)
6.7	CCCC[C@@H](NC(=O)C1(NC(=O)[C@H](Cc2ccccc2)NC(=O)[C@@H](Cc2c[nH]c3ccccc23)NC(=O)[C@@H](Cc2csc3ccccc23)NC(=O)[C@H](N)CC)CCNCC1)C(=O)N[C@H](C)C(N)=O [Compound 84] (H-[dAbu][dBta][dW]F[Api][dNle][dA]-NH2)

Further lines, the molecule ahead of its results:

Compound	IC50 [nM]
N=C(N)NCCC[C@@H](NC(=O)[C@H](Cc1ccccc1)NC(=O)[C@@H](Cc1c[nH]c2ccccc12)NC(=O)[C@@H](Cc1csc2ccccc12)NC(=O)[C@H]1CNCCO1)C(N)=O [Compound 67] (X4-[dBta][dW]F[dR]-NH2)	23.3
N=C(N)NCCC[C@@H](NC(=O)[C@H](Cc1ccccc1)NC(=O)[C@@H](Cc1c[nH]c2ccccc12)NC(=O)[C@@H](Cc1csc2ccccc12)NC(=O)CC12CC3CC(CC(N)(C3)C1)C2)C(N)=O [Compound 68] (X5-[dBta][dW]F[dR]-NH2)	330
N=C(N)NCCC[C@@H](NC(=O)[C@H](Cc1ccccc1)NC(=O)[C@@H](Cc1c[nH]c2ccccc12)NC(=O)[C@@H](Cc1csc2ccccc12)NC(=O)C1N[C@@H]2CC[C@H]1C2)C(N)=O (stereo partly shown) [Compound 69] (H-[X6][dBta][dW]F[dR]-NH2)	40.2
N=C(N)NCCC[C@@H](NC(=O)[C@H](Cc1ccccc1)NC(=O)[C@@H](Cc1c[nH]c2ccccc12)NC(=O)[C@@H](Cc1csc2ccccc12)NC(=O)[C@@]12CNC[C@@H]1C2)C(N)=O [Compound 70] (X7-[dBta][dW]F[dR]-NH2)	39.7
NC(=O)[C@H](Cc1ccccc1)NC(=O)[C@@H](Cc1c[nH]c2ccccc12)NC(=O)[C@@H](Cc1csc2ccccc12)NC(=O)C1CNC1 [Compound 73]	15.9
NC(=O)[C@H](Cc1ccccc1)NC(=O)[C@@H](Cc1c[nH]c2ccccc12)NC(=O)[C@@H](Cc1csc2ccccc12)NC(=O)C1(N)COC1 [Compound 74] (H-[Ac4c(3-oxa)][dBta][dW]F-NH2)	17.3
NC(=O)[C@H](Cc1ccccc1)NC(=O)[C@@H](Cc1c[nH]c2ccccc12)NC(=O)[C@@H](Cc1csc2ccccc12)NC(=O)[C@H]1CCN1 [Compound 75] (H-[dAze][dBta][dW]F-NH2)	12.4
